According to patent publication US20160264593A1 (priority 2013, published 2016):
Where two headings read alike, the source gives them in different places.

Assay: Pharmacokinetic study of 157 (and metabolite endothal) in SD rats, iv and po; plasma, liver, brain
Type: in vivo
Details: for Tmax: read-out: Tmax; for MRT last: read-out: MRT (0-t); for half-life: read-out: T1/2 (converted); for concentration at 2 h / 157 brain concentration: 2 hr
Method: The blood, liver and brain tissue samples were collected at predetermined times from rats. […] Compound were diluted shortly before use in 4% sodium bicarbonate for sterile injection (this is the standard pediatric solution of NaHCO3 with a pH of about 8.5).
Compound 153 was freshly prepared by diluting the drugs shortly before use in 4% sodium bicarbonate for sterile injection (this is the standard pediatric solution of NaHCO3 with a pH of about 8.5). The final concentrations of 153 solutions were 0.25 mg/mL. The 153 solutions were administered via iv or po route at dose volume of 5 ml/kg according to the latest body weight. Compound 157 was freshly prepared by diluting the drugs shortly before use in 4% sodium bicarbonate for sterile injection (this is the standard pediatric solution of NaHCO3 with a pH of about 8.5). The final concentrations of […] solutions were 0.3 mg/mL. The 157 solutions were administered via iv or po route at dose volume of 5 ml/kg according to the latest body weight.
Twelve (12) female SD rats per group were dosed by iv with 153 or 157. The rats were fasted overnight prior to dosing, with free access to water. Foods were withheld for 2 hours post-dose. Blood, liver and brain tissue samples in two animals each group were collected at each time point, within 10% of the scheduled time for each time point. Two extra animals were used for analytic method development.
Blood (>0.3 mL) were collected via aorta abdominalis in anaesthetic animals into tubes containing heparin at 15 min, 1, 2, 6, 10 and 24 hours after iv administration. Liver and brain tissues were collected immediately after animal death. The liver and brain tissues were excised and rinsed with cold saline to avoid blood residual. Upon collection, each sample was placed on ice and the blood samples were subsequently centrifuged (4° C., 11000 rpm, 5 min) to separate plasma. The obtained plasma, liver and brain tissue samples were stored at −70° C. until LC-MS/MS analysis.
Two (2) female SD rats per group were dosed by po with 153 or 157. The rats were fasted overnight prior to dosing, with free access to water. Foods were withheld for 2 hours post-dose. Blood samples (>0.3 mL) were collected via aorta abdominalis in anaesthetic animals into tubes containing heparin at 30 min, 1, 2, 6, 10 and 24 hours after po administration.
To each sample, 30 μL IS-D (for blank samples, 20 μL acetonitrile:water (1:1) was added) and 300 μl acetonitrile was added. The sample mixture was vortexed for approximately 3 min. After centrifugation at 10000 rpm for 5 min at 4° C., 100 μL of the upper layer was transferred to a new tube and added 200 μL 0.4% formic acid in water (pH6.0). The mixture was vortexed for approximately 3 min before injected onto the LC/MS/MS system for analysis.
On the day of the assay, the frozen liver and brain samples were thawed unassisted at room temperature. An about 200 mg weighed sample of each thawed tissue was placed into a plastic tube with water (0.6 mL) to facilitate homogenization. Tissue processing was conducted using a homogenizer for approximately 1 min, 100 μl homogenate was transferred into a fresh Eppendorf tube. To each tube, 50 μL IS-D was added and mixed. Then 500 μl acetonitrile was added and the sample mixture was vortexed for approximately 3 min. After centrifugation at 10000 rpm for 5 min at 4° C., 100 μL of the upper layer was transferred to a new tube and evaporate the supernatant to dryness at 35° C. Reconstitute the residue with 200 μL of 0.4% formic acid in water (pH 6.0), and vortex for 3 min, submit for LC-MS/MS analysis.
Frozen unknown plasma samples were completely thawed at room temperature and vortexed thoroughly. With a pipette, 50 μL of plasma was transferred into a 2.0 mL Eppendorf tube. 50 μL of 0.1N HCl and 800 μL ethyl acetate were added into each sample. The sample mixture was vortexed for approximately 3 min.

[1] = female, Sprague-Dawley (SD), rat, in vivo, iv, 1.5 mg/kg, 157 in Brain, iv 1.5 mg/kg, Mean
[2] = female, Sprague-Dawley (SD), rat, in vivo, iv, 1.5 mg/kg, 157 in Brain, iv 1.5 mg/kg, rat 1
[3] = female, Sprague-Dawley (SD), rat, in vivo, iv, 1.5 mg/kg, 157 in Brain, iv 1.5 mg/kg, rat 2
[4] = female, Sprague-Dawley (SD), rat, in vivo, iv, 1.5 mg/kg, 157 in Liver, iv 1.5 mg/kg, Mean
[5] = female, Sprague-Dawley (SD), rat, in vivo, iv, 1.5 mg/kg, 157 in Liver, iv 1.5 mg/kg, rat 1
[6] = female, Sprague-Dawley (SD), rat, in vivo, iv, 1.5 mg/kg, 157 in Liver, iv 1.5 mg/kg, rat 2
[7] = female, Sprague-Dawley (SD), rat, in vivo, iv, 1.5 mg/kg, iv 1.5 mg/kg, Mean, read-out: 157 plasma concentration
[8] = female, Sprague-Dawley (SD), rat, in vivo, iv, 1.5 mg/kg, iv 1.5 mg/kg, Rat 1, read-out: 157 liver concentration
[9] = female, Sprague-Dawley (SD), rat, in vivo, iv, 1.5 mg/kg, iv 1.5 mg/kg, Rat 1, read-out: 157 plasma concentration
[10] = female, Sprague-Dawley (SD), rat, in vivo, iv, 1.5 mg/kg, iv 1.5 mg/kg, Rat 2, read-out: 157 liver concentration
[11] = female, Sprague-Dawley (SD), rat, in vivo, iv, 1.5 mg/kg, iv 1.5 mg/kg, Rat 2, read-out: 157 plasma concentration
[12] = female, Sprague-Dawley (SD), rat, in vivo, po, 1.5 mg/kg, 157 in plasma, PO 1.5 mg/kg, rat 2
[13] = female, Sprague-Dawley (SD), rat, in vivo, po, 1.5 mg/kg, PO 1.5 mg/kg, Mean, read-out: 157 plasma concentration
[14] = female, Sprague-Dawley (SD), rat, in vivo, po, 1.5 mg/kg, PO 1.5 mg/kg, Rat 1, read-out: 157 plasma concentration
[15] = female, Sprague-Dawley (SD), rat, in vivo, po, 1.5 mg/kg, PO 1.5 mg/kg, Rat 2, read-out: 157 plasma concentration

## CCCCCCCOC(=O)C1C2CCC(O2)C1C(=O)N1CCN(C)CC1 (centres unmarked) [Compound 157, 3-(4-Methylpiperazine-1-carbonyl)-7-oxa-bicyclo[2,2,1]heptane-2-carboxylic acid heptyl ester]
female, SD, rat, in vivo, iv, 1.5 mg/kg, iv 1.5 mg/kg, Rat 2, read-out: 157 liver concentration
  concentration at 1 h: 17.6 ng/g
female, SD, rat, in vivo, po, 1.5 mg/kg, 157 po 1.5 mg/kg, read-out: AUC of 157 in plasma
  AUC: 3.2 ng·h/mL
female, SD, rat, in vivo, po, 1.5 mg/kg, 157 po 1.5 mg/kg, read-out: Cmax of 157 in plasma
  Cmax: 6.14 ng/mL
female, SD, rat, in vivo, 157 iv 1.5 mg/kg, read-out: AUClast of 157 in plasma
  AUC(0-t): 47.2 ng·h/mL
female, SD, rat, in vivo, 157 po vs iv 1.5 mg/kg, read-out: BA (bioavailability) of 157
  bioavailability: 6.98%
female, Sprague-Dawley (SD), in vivo, 157 in plasma, PO 1.5 mg/kg, rat 2
  Tmax: 30 min
female, Sprague-Dawley (SD), rat, in vivo, iv, 1.5 mg/kg, 157 in Brain, iv 1.5 mg/kg, Mean, read-out: Cmax
  Cmax: 60 ng/g
[1]
  MRT last: 18.8 min
  half-life: 9.72 min
female, Sprague-Dawley (SD), rat, in vivo, iv, 1.5 mg/kg, 157 in Brain, iv 1.5 mg/kg, rat 1, read-out: Cmax
  Cmax: 60 ng/g
[2]
  MRT last: 18.3 min
  half-life: 9.18 min
female, Sprague-Dawley (SD), rat, in vivo, iv, 1.5 mg/kg, 157 in Brain, iv 1.5 mg/kg, rat 2, read-out: Cmax
  Cmax: 60 ng/g
[3]
  MRT last: 19.4 min
  half-life: 10.2 min
female, Sprague-Dawley (SD), rat, in vivo, iv, 1.5 mg/kg, 157 in Liver, iv 1.5 mg/kg, Mean, read-out: Cmax
  Cmax: 297 ng/g
[4]
  MRT last: 35.3 min
  half-life: 48.8 min
female, Sprague-Dawley (SD), rat, in vivo, iv, 1.5 mg/kg, 157 in Liver, iv 1.5 mg/kg, rat 1, read-out: Cmax
  Cmax: 337 ng/g
[5]
  MRT last: 31.9 min
  half-life: 27.3 min
female, Sprague-Dawley (SD), rat, in vivo, iv, 1.5 mg/kg, 157 in Liver, iv 1.5 mg/kg, rat 2, read-out: Cmax
  Cmax: 257 ng/g
[6]
  MRT last: 38.8 min
  half-life: 70.2 min
[7]
  concentration at 0.25 h: 115 ng/mL
  concentration at 1 h: 3.12 ng/mL
  concentration at 2 h: 0.524 ng/mL
[8]
  concentration at 0.25 h: 337 ng/g
  concentration at 2 h: 6.4 ng/g
[9]
  concentration at 0.25 h: 116 ng/mL
  concentration at 1 h: 2.67 ng/mL
  concentration at 2 h: 0.491 ng/mL
[10]
  concentration at 0.25 h: 257 ng/g
  concentration at 2 h: 9.72 ng/g
[11]
  concentration at 0.25 h: 114 ng/mL
  concentration at 1 h: 3.57 ng/mL
  concentration at 2 h: 0.556 ng/mL
female, Sprague-Dawley (SD), rat, in vivo, iv, 1.5 mg/kg, iv 1.5 mg/kg, Mean, read-out: 157 liver concentration
  concentration at 2 h: 8.06 ng/g
[12]
  AUC(0-inf): 3 ng·h/mL
  MRT last: 54.2 min
  half-life: 22.2 min
female, Sprague-Dawley (SD), rat, in vivo, po, 1.5 mg/kg, 157 in plasma, PO 1.5 mg/kg, rat 2, read-out: AUC
  AUC: 3 ng·h/mL
female, Sprague-Dawley (SD), rat, in vivo, po, 1.5 mg/kg, 157 in plasma, PO 1.5 mg/kg, rat 2, read-out: Cmax
  Cmax: 6.35 ng/mL
female, Sprague-Dawley (SD), rat, in vivo, po, 1.5 mg/kg, PO 1.5 mg/kg, Mean
  concentration at 0.5 h: 6.14 ng/mL
female, Sprague-Dawley (SD), rat, in vivo, po, 1.5 mg/kg, PO 1.5 mg/kg, Rat 1
  concentration at 0.5 h: 5.92 ng/mL
female, Sprague-Dawley (SD), rat, in vivo, po, 1.5 mg/kg, PO 1.5 mg/kg, Rat 2
  concentration at 0.5 h: 6.35 ng/mL
[13]
  concentration at 1 h: 1.37 ng/mL
  concentration at 2 h: 0.249 ng/mL
[14]
  concentration at 1 h: 1.48 ng/mL
  concentration at 2 h: 0.303 ng/mL
[15]
  concentration at 1 h: 1.26 ng/mL
  concentration at 2 h: 0.194 ng/mL
female, Sprague-Dawley (SD), rat, in vivo, 157 in Liver, iv 1.5 mg/kg, Mean
  Tmax: 15 min
Iv 1.5 mg/kg, Rat 1
  157 brain concentration: BLQ
Iv 1.5 mg/kg, Rat 2
  157 brain concentration: BLQ
Iv 1.5 mg/kg, 10 hr, Rat 2
  157 liver concentration: BLQ
